Experimental data published in ChEMBL document CHEMBL1201862, “PubChem BioAssay data set” (2004).
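Grown in 96-well plates, cells were treated for 48 hours with each compound at five concentrations. Insufficient inhibition: endpoint recorded as highest concentration tested. GI50 = concentration required for 50% inhibition of growth.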 Calls of active or inactive are those of the source. Rule as the data show it: active = GI50 up to about 1.1 µM and inactive = higher.

Tests used:
Experiment in all cases: DTP human tumour cell line panel, 48 h
[1] = system: HCT-116
[2] = system: OVCAR-8
[3] = system: SF-268
[4] = system: SNB-78
[5] = system: DMS-273
[6] = system: KM-20L2
[7] = system: ACHN
[8] = system: SR
[9] = system: HL-60
[10] = system: A549
[11] = system: COLO 205
[12] = system: M14
[13] = system: HT-29
[14] = system: NCI-H226
[15] = system: SK-MEL-5
[16] = system: RXF 393
[17] = system: UO-31
[18] = system: UACC-257
[19] = system: SK-MEL-2
[20] = system: XF498
[21] = system: SW-620
[22] = system: SF-539
[23] = system: NCI-H23
[24] = system: 786-0
[25] = system: DLD-1
[26] = system: RPMI-8226
[27] = system: TK-10
[28] = system: A498
[29] = system: LOX IMVI
[30] = system: RXF 631
[31] = system: IGROV-1
[32] = system: HOP-62
[33] = system: K562
[34] = system: EKVX
[35] = system: SF-295
[36] = system: SN12C
[37] = system: SNB-75
[38] = system: HOP-18
[39] = system: LXFL 529
[40] = system: Malme-3M
[41] = system: NCI-H460
[42] = system: OVCAR-3
[43] = system: DMS-114
[44] = system: SK-MEL-28
[45] = system: M19-MEL
[46] = system: U-251
[47] = system: CAKI-1
[48] = system: UACC-62
[49] = system: SK-OV-3
[50] = system: NCI-H522
[51] = system: OVCAR-5
[52] = system: HCT-15
[53] = system: CCRF-CEM
[54] = system: MOLT-4
[55] = system: KM12
[56] = system: HOP-92
[57] = system: SNB-19
[58] = system: HCC 2998
[59] = system: OVCAR-4

Measured: GI50

O=C(c1cccc2ccccc12)N1CCC(C2CCN(C(=O)c3cccc4ccccc34)CC2)CC1
inactive: [1] > 100 µM | [2] > 100 µM | [3] > 100 µM | [4] 70.1 µM | [5] > 100 µM | [6] > 100 µM | [7] > 100 µM | [8] > 100 µM | [9] 65.5 µM | [10] > 100 µM | [11] > 100 µM | [12] > 100 µM | [13] > 100 µM | [14] > 100 µM | [15] > 100 µM | [16] > 100 µM | [17] > 100 µM | [18] > 100 µM | [19] > 100 µM | [20] 89.3 µM | [21] > 100 µM | [22] > 100 µM | [23] > 100 µM | [24] > 100 µM | [25] > 100 µM | [26] 91.8 µM | [27] > 100 µM | [28] > 100 µM | [29] > 100 µM | [30] > 100 µM | [31] > 100 µM | [32] > 100 µM | [33] > 100 µM | [34] > 100 µM | [35] > 100 µM | [36] > 100 µM | [37] 23.8 µM | [38] > 100 µM | [39] > 100 µM | [40] > 100 µM | [41] > 100 µM | [42] > 100 µM | [43] > 100 µM | [44] > 100 µM | [45] > 100 µM | [46] > 100 µM | [47] > 100 µM | [48] > 100 µM | [49] > 100 µM | [50] > 100 µM | [51] 99.1 µM | [53] > 100 µM | [54] > 100 µM | [55] > 100 µM | [56] > 100 µM
> 100 µM: [52]

Cc1ccc(C(=O)NCCN(C)C)c2nc3ccccc3cc12
active: [1] 0.468 µM | [2] 0.622 µM | [5] 0.467 µM | [6] 0.661 µM | [7] 0.45 µM | [10] 0.92 µM | [13] 0.462 µM | [21] 0.445 µM | [29] 0.561 µM | [30] 0.817 µM | [35] 1.07 µM | [36] 0.809 µM | [41] 0.34 µM | [46] 0.644 µM | [54] 0.608 µM | [55] 1.1 µM
inactive: [4] 13.2 µM | [9] 1.42 µM | [11] 1.57 µM | [57] 2.36 µM | [12] 2.69 µM | [14] 1.15 µM | [15] 1.52 µM | [16] 1.29 µM | [17] 2.49 µM | [18] 1.3 µM | [19] 2.53 µM | [58] 2.56 µM | [20] 1.38 µM | [24] 2.32 µM | [25] 1.32 µM | [26] 4.24 µM | [27] 1.54 µM | [31] 6.58 µM | [32] 8.24 µM | [33] 1.4 µM | [34] 1.73 µM | [37] 1.52 µM | [38] 1.92 µM | [39] 2.15 µM | [40] 2.54 µM | [42] 1.32 µM | [43] 2.78 µM | [44] 1.95 µM | [45] 2.31 µM | [47] 1.79 µM | [59] 3.74 µM | [48] 2.47 µM | [49] 30.3 µM | [51] 1.94 µM | [53] 1.54 µM | [56] 14 µM
0.644 µM: [52]

CCN(CC)CC(C(=O)Nc1c(C)cccc1C)/C(C)=N\NC(=O)c1ccncc1 (stereo not given)
> 100 µM: [52]
inactive: [1] > 100 µM | [2] > 100 µM | [3] > 100 µM | [4] > 100 µM | [5] > 100 µM | [7] > 100 µM | [8] > 100 µM | [10] > 100 µM | [11] > 100 µM | [57] > 100 µM | [12] > 100 µM | [13] > 100 µM | [14] > 100 µM | [15] > 100 µM | [16] > 100 µM | [17] > 100 µM | [18] > 100 µM | [19] > 100 µM | [58] > 100 µM | [20] > 100 µM | [22] > 100 µM | [23] > 100 µM | [24] > 100 µM | [25] > 100 µM | [27] > 100 µM | [28] > 100 µM | [29] > 100 µM | [30] > 100 µM | [31] > 100 µM | [32] > 100 µM | [35] > 100 µM | [36] > 100 µM | [37] > 100 µM | [38] > 100 µM | [39] > 100 µM | [40] > 100 µM | [41] > 100 µM | [42] > 100 µM | [43] > 100 µM | [44] > 100 µM | [45] > 100 µM | [46] > 100 µM | [47] > 100 µM | [59] > 100 µM | [49] > 100 µM | [50] > 100 µM | [51] > 100 µM | [54] > 100 µM | [55] > 100 µM | [56] > 100 µM
